US6365614B1, “Fungicides mixtures” (priority 1997, dated 2002)

System: Plasmopara viticola
Experiment: Curative action against Plasmopara viticola on potted grapevines
Type: in vivo, Plasmopara viticola on grapevines cv. Müller-Thurgau
Details: grapevine leaves, untreated control 73% infection
Procedure: Curative action against Plasmopara viticola
Leaves of potted grapevines cv. “Müller-Thurgau” were inoculated with an aqueous zoospore suspension of Plasmopara viticola. The grapevines were subsequently kept in a water-vapor-saturated chamber at 22-24° C. for 48 hours. They were then removed from the chambers and, after they had dried, sprayed to run off point with an aqueous preparation of active compound which had been prepared from a stock solution comprising 10% of active compound, 63% of cyclohexanone and 27% of emulsifier. After the spray coating had dried on, the plants were cultivated for another 5 days in the greenhouse at 20-30° C. After this time, the plants were returned into a humid chamber for 16 hours to accelerate the eruption of sporangiophore. The extent to which the disease had developed on the undersides of the leaves was then determined visually in %.
Evaluation is carried out by determining the infected leaf areas in percent. These percentages are converted into efficacies. The expected efficacies of the active compound mixtures are determined using Colby's formula [R. S. Colby, Weeds 15, 20-22 (1967)] and compared with the observed efficacies. Colby's formula: […]
expected efficacy, expressed in % of the untreated control, when using the mixture of the active compounds A, B and C at the concentrations a, b and c x efficacy, expressed in % of the untreated control, when using active compound A at a concentration of a y efficacy, expressed in % of the untreated control, when using active compound B at a concentration of b z efficacy, expressed in % of the untreated control, when using active compound C at a concentration of c The efficacy(E) is calculated as follows using Abbot's formula: […]
α corresponds to the fungal infection of the treated plants in % and β corresponds to the fungal infection of the untreated (control) plants in % An efficacy of 0 means that the infection level of the treated plants corresponds to that of the untreated control plants; an efficacy of 100 means that the treated plants were not infected.

[1] = 1 ppm active compound in the spray liquor

Row | Structure (SMILES) | Efficacy in % of the untreated control [1] | Efficacy in % of the untreated control (4 ppm active compound in the spray liquor) | Efficacy in % of the untreated control (16 ppm active compound in the spray liquor)
1 | COCC(=O)N(c1c(C)cccc1C)C(C)C(=O)OC (stereo not shown) [II.3, metalaxyl] | 59% | – | –
2 | Cc1cccc(C)c1N(C(=O)CCl)C1CCOC1=O (stereo not shown) [II.2, Ofurace] | 0% | 73% | 73%
